# Experimental data taken from patent US7749976B2, “Isolated PTPMT1 protein which mediates insulin production and uses thereof” (The Regents of the University of California, priority 2005, dated 2010).
# Key:
# Type in all cases: cell-based, rat
# INS-1 832/13 cells [1] = assay: ATP and ADP assays in siRNA-treated INS-1 832/13 cells
# Method: (§1) PTPMT1 expression in INS-1 832/13 cells was knocked down using 200 pmol of Ambion siRNA (sense: 5′-GUCUGUGGAUGACAAAGAAtt-3′ (SEQ ID NO:3), antisense: UUCUUUGUCAUCCACAGACtt-3′ (SEQ ID NO:4)) in an Amaxa nucleoporator with buffer T on program T-20, according to the manufacturer's protocol. Approximately 72 hrs post siRNA treatment, cells were treated as outlined in the text, pelleted and lysed in 2% TCA via sonication and/or vortexing. Precipitates were pelleted at 13,200 rpm for 2 minutes. The supernatant was removed, neutralized with 0.5 M Tris pH 7.4, and analyzed for ATP using Promega's ENLITEN luciferase bioluminescence reagent at an appropriate dilution. All ATP measurements were normalized to protein levels, as measured by the BCA method (Pierce). ADP levels were determined by converting ADP to ATP with pyruvate kinase, remeasuring ATP by the above assay, and subtracting the initial ATP readings, as reported (Gorman et al., 2003).
# Given PTPMT1's likely juxtaposition with members of the respiratory chain on the inner mitochondrial membrane, assessment of PTPMT1's endogenous function was carried out by measuring its effect on cellular ATP levels. […] Seventy-two hours post siRNA treatment, cells were washed and incubated in a 3.0 mM glucose medium for 2 hr. Cells were then lysed and ATP levels analyzed using a luciferase based luminometry reaction. Strikingly, knockdown of PTPMT1 expression increased ATP levels by an average of 82% over control cells across three separate experiments (FIG. 10B). […] ATP/ADP ratio (FIG. 10C). […] AMPK serves as a sensor of cellular energy status, becoming dephosphorylated (inactivated) when the cellular AMP:ATP ratio decreases. Consistent with the above data, AMPK is more highly phosphorylated in the control cells following the above incubation in low glucose (FIG. 10D). Thus, knockdown of PTPMT1 results in a true increase in cellular energy status, as opposed to merely a general increase in the cellular adenine pool.
# INS-1 832/13 cells [2] = assay: Glucose-stimulated insulin secretion assay; conditions: basal (3 mM) and glucose stimulated (15 mM) conditions, out to 120 min
# Method: INS-1 832/13 cells (5×10^6 per reaction) were electroporated as above, and split between 4 wells of a 12-well plate. After 72 hours, cells were washed once with low glucose (3 mM) standard assay buffer (SAB: 114 mM NaCl, 4.7 mM KCl, 1.2 mM KH2PO4, 1.16 mM MgSO4, 20 mM HEPES pH 7.2, 25.5 mM NaHCO3, 10 mM CaCl2, 0.2% BSA), and then preincubated for 2 hours in fresh low glucose SAB. After preincubation, 1 mL of low or high (15 mM) glucose SAB was added to each well. At the end of the incubation time, the SAB was removed and saved, and the cells were washed once in PBS, and lysed by freezing and thawing in a Tris-EDTA solution (20 mM Tris pH 7.4, 20 mM EDTA pH 8.0, 10 mM DTT, protease inhibitors). A Bio-Rad protein assay was performed on each lysate sample to standardize the insulin assay results for protein. The ^125I-insulin Coat-A-Count RIA (Diagnostic Products Corp.) was used to assay SAB samples for insulin content.
# To test this, INS-1 832/13 cells were again treated with luciferase (control) or PTPMT1 siRNA. Seventy-two hours post siRNA treatment, cells were washed with PBS, and incubated in media containing 3 mM glucose for 2 hrs to normalize insulin release. Fresh media containing either 3 mM (low) or 15 mM (high) glucose media was then added to the cells and insulin secretion analyzed out to 120 min. […]
# PTPMT1 = assay: Knockdown of PTPMT1 expression (immunoblot); conditions: Amaxa nucleoporation, INS-1 832/13 cells
# Method: as §1
# FIG. 10 illustrates that PTPMT1 is involved in the regulation of mitochondrial ATP production. […] In C whole cell ADP was measured as above.
# To simultaneously assess the effect that knockdown of PTPMT1 has on mitochondrial phosphoproteins and PI(5)P levels, its expression was knocked-down in a large quantity of INS-1 832/13 cells using adenovirus-delivered siRNA. […]
substance,measurement,setting,value
"PTPMT1 siRNA: Ambion siRNA sense 5′-GUCUGUGGAUGACAAAGAAtt-3′ (SEQ ID NO:3), antisense UUCUUUGUCAUCCACAGACtt-3′ (SEQ ID NO:4) (sense GUCUGUGGAUGACAAAGAATT; antisense UUCUUUGUCAUCCACAGACTT; chemistry not given here)",Increase in ATP levels over control cells,"INS-1 832/13 cells [1]; 72 h post siRNA, 2 hr in 3.0 mM glucose, average of three experiments",82%
same,ADP levels versus control,"INS-1 832/13 cells [1]; 72 h post siRNA, low glucose 2 h","Very little, if any, difference"
same,ATP levels versus control with FCCP,INS-1 832/13 cells [1]; same buffer containing 10 μM FCCP,no difference in ATP levels
same,Insulin secretion versus control,INS-1 832/13 cells [2],increased insulin secretion at nearly all time points
same,Endogenous PTPMT1 expression,PTPMT1,highly effective at ablating endogenous PTPMT1 expression
